According to patent EP4011367A1, “COMPOUNDS FOR USE IN THE TREATMENT OF COVID-19” (priority 2020, dated 2022):
Where a name gives a salt, the structure may show the parent alone. Read-outs that look alike come from different tables or passages of the source.

Biological target: T1, SARS-CoV-2 3CL-Pro (Severe acute respiratory syndrome coronavirus 2, UniProt P0DTD1)
T1 construct: SARS-CoV-2 main protease (3CL-Pro), also termed M-Pro
Experiment: biochemical
Conditions: for inhibition at 20 µM: read-out: 3CL-Pro Inhibition [%] Primary Screen (20 µM)

[1] = dose response, 8 concentrations, absence of DTT, 60 min pre-incubation at 37 °C, 15 µM substrate, 60 nM enzyme, read-out: IC50

Structure (SMILES) | inhibition at 20 µM | IC50 (read-out: IC50) | IC50 | IC50 [1]
CCOC(=O)Cc1ccc(-c2ccccc2)cc1 [compound 57, [1,1'-Biphenyl]-4-acetic acid ethyl ester] | 96.2% | 200 nM |  | 
O=C1C=CC(=O)C2=C1C1c3ccccc3C2c2ccccc21 [compound 61, Pentacyclo[6.6.6.0(2,7).0(9,14).0(15,20)]icosa-2(7),4,9,11,13,15,17,19-octaene-3,6-dione] | 99.2% | 240 nM |  | 
O=C(O)c1ccccc1-c1c2cc(Br)c(=O)cc-2oc2[c]([Hg][OH])c(O)c(Br)cc12 [compound 62, [2,7-dibromo-9-(2-carboxyphenyl)-3-hydroxy-6-oxoxanthen-4-yl]mercury;hydrate] |  |  | 240 nM | 
CCOc1cc(C(Nc2cc(C)ccn2)c2ccc3cccnc3c2O)ccc1OC (stereo not shown) [compound 63, 7-[(3-Ethoxy-4-methoxyphenyl)[(4-methylpyridin-2-yl)amino]methyl]quinolin-8-ol] | 98.9% |  | 270 nM | 
O=[N+]([O-])c1cnc(Sc2nnc(O)n2-c2ccc3c(c2)OCCO3)s1 [compound 64, 4-(2,3-Dihydro-1,4-benzodioxin-6-yl)-5-(5-nitrothiazol-2-ylsulfanyl)-4H-1,2,4-triazol-3-ol] | 96.4% | 300 nM |  | 
Oc1c(I)cc(I)c(O)c1I [compound 65, 2,4,6-Triiodoresorcine] | 99.7% | 330 nM |  | 
N#CSc1cc(SC#N)c(N)nc1N [compound 66, 2,6-Diaminopyridine-3,5-diyl bis(thiocyanate)] |  | 410 nM |  | 
O=[N+]([O-])C(Br)(CO)CO [compound 67, 2-bromo-2-nitropropane-1,3-diol] | 99.9% | 420 nM |  | 
Oc1cc(CNC(=S)C=Cc2cc(O)c(O)c(Br)c2)cc(O)c1O [compound 68, 3-(3-Bromo-4,5-dihydroxyphenyl)-N-(3,4,5-trihydroxybenzyl)-2-propenethioamide] | 79.4% |  |  | 480 nM
Oc1cc2c(cc1C(c1ccc(C(F)(F)F)cc1)N1CCOCC1)OCO2 (stereo not shown) [compound 70, 6-[morpholin-4-yl-[4-(trifluoromethyl)phenyl]methyl]-1,3-benzodioxol-5-ol] | 81.4% | 540 nM |  | 
CC(C)N(CCC(=O)c1ccc2ccccc2c1)Cc1ccccc1 [compound 71, 3-[benzyl(propan-2-yl)amino]-1-naphthalen-2-ylpropan-1-one] | 75.7% | 580 nM |  | 
COc1cccc2c1C(=O)c1c(O)c3c(c(O)c1C2=O)C[C@@](O)(C(CO)=NNC(=O)CCCCCN1C(=O)C=CC1=O)C[C@@H]3O[C@H]1C[C@H](N)[C@H](O)[C@H](C)O1 [compound 72, N'-[1-[4(S)-(3-Amino-2,3,6-trideoxy-alpha-L-lyxo-hexopyranosyloxy)-2(S),5,12-trihydroxy-7-methoxy-6,11-dioxo-1,2,3,4,6,11-hexahydronaphthacen-2-yl]-2-hydroxyethylidene]-6-(2,5-dioxo-2,5-dihydro-1H-pyrrol-1-yl)hexanohydrazide hydrochloride] | 101% |  | 580 nM | 
CC[C@H](CO)Nc1nc(NCc2ccc(-c3ccccn3)cc2)c2ncn(C(C)C)c2n1 [compound 73, (2R)-2-[[9-propan-2-yl-6-[(4-pyridin-2-ylphenyl)methylamino]purin-2-yl]amino]butan-1-ol] | 99.5% | 840 nM |  | 
C=CC1=C(C)C2=Cc3c(C=C)c(C)c4[n]3[Fe]([Cl])[n]3c(c(C)c(CCC(=O)O)c3=CC3=NC(=C4)C(C)=C3CCC(=O)O)=CC1=N2 [compound 74, - (SP-5-13)-Chloro[3,8,13,17-tetramethyl-7,12-divinyl-21H,23H-porphine-2,18-dipropanoato(4-)-kappa N21,kappaN22,kappaN23,kappaN24]dihydrogenoferrate(2-)] |  |  | 880 nM | 
CN(C)C(=S)SC(=S)N(C)C [compound 75, dimethylcarbamothioyl N,N-dimethylcarbamodithioate] |  | 940 nM |  | 
CN=c1nc(-c2ccccc2)n(-c2ccccc2)s1 [compound 76, N-(2,3-Diphenyl-2,5-dihydro-1,2,4-thiadiazol-5-ylidene)-N-methylamine] | 99.8% |  |  | 980 nM
COc1cc(C(=S)N2CCOCC2)ccc1O [compound 79, (4-hydroxy-3-methoxyphenyl)-orpholin-4-ylmethanethione] | 100% | 1320 nM |  | 
CNC(=O)ON(C(C)=O)C(=O)NC [compound 80, N-[(Methylamino)carbonyl]-N-[[(methylamino)carbonyl]oxy]ace tamide] | 96.4% | 1330 nM |  | 
O=C(O)c1cc(O)c2c(c1)[C@H]([C@H]1c3cc(C(=O)O)cc(O)c3C(=O)c3c(O[C@@H]4O[C@H](CO)[C@@H](O)[C@H](O)[C@H]4O)cccc31)c1cccc(O[C@@H]3O[C@H](CO)[C@@H](O)[C@H](O)[C@H]3O)c1C2=O [compound 81, (9R)-9-[(9R)-2-carboxy-4-hydroxy-10-oxo-5-[(2S,3R,4S,5S,6R)-3,4,5-trihydroxy-6-(hydroxymethyl)oxan-2-yl]oxy-9H-anthracen-9-yl]-4-hydroxy-10-oxo-5-[(2S,3R,4S,5S,6R)-3,4,5-trihydroxy-6-(hydroxymethyl)oxan-2-yl]oxy-9H-anthracene-2-carboxylic acid] | 103% |  |  | 
O=C(O)C(S)C(S)C(=O)O (stereo not shown) [compound 82, 2,3-bis(sulfanyl)butanedioic acid] | 98.9% |  | 1720 nM | 
Cc1ccccc1N(C)C(=O)c1ccc([S+]([O-])c2nccs2)c([N+](=O)[O-])c1 (stereo not shown) [compound 84, N-methyl-N-(2-methylphenyl)-3-nitro-4-(1,3-thiazol-2-ylsulfinyl)benzamide] | 96.7% | 1870 nM |  | 
CN1CC[C@@]2(C)c3cc(O)ccc3N(C)[C@@H]12 [compound 85, (3aS,8bR)-3,4,8b-trimethyl-2,3a-dihydro-1H-pyrrolo[2,3-b] indol-7-ol] | 91.5% | 1990 nM |  | 
O=C(O)CCCCCCCCCCCCCCc1ccc(I)cc1 [compound 88, 15-(4-iodophenyl)pentadecanoic acid] | 95% | 2250 nM |  | 
COc1cccc(C(=O)CCN[C@@H](C)[C@H](O)c2ccccc2)c1 [compound 89, 3-[2(R)-Hydroxy-1(S)-methyl-2-phenylethylamino]-1-(3-methoxyphenyl)propan-1-one hydrochloride] | 90.8% | 2350 nM |  | 
C[N+]1(C)CCC(OC(=O)C(c2ccccc2)c2ccccc2)CC1 [compound 90, (1,1-dimethylpiperidin-1-ium-4-yl) 2,2-diphenylacetate;iodide] | 97.8% |  | 2360 nM | 
C=C1C(=O)[C@@]23C(CC[C@@H]1[C@H]2O)[C@@]12CO[C@]3(O)[C@@H](O)[C@@H]1C(C)(C)CC[C@@H]2O (stereo partly drawn) [compound 91, (1S,5S,8R,9S,10S,11R,15S,18R)-9,10,15,18-tetrahydroxy-12,12-dimethyl-6-methylidene-17-oxapentacyclo[7.6.2.15,8.01,11.0 2,8]octadecan-7-one] | 98.2% |  |  | 
